Measurements reported in BindingDB's records for doi:10.1016/j.bmcl.2009.09.017 (Pfizer, 2009).

Test: Antagonist activity at P2Y12 receptor in human platelet rich plasma assessed as inhibition of ADP-induced platelet aggregation by light transmission aggregometry

| IC50 | Structure (SMILES) |
| --- | --- |
| > 10 µM | CCCCCOC(=O)N1CCN(C(=O)[C@H](CCC(=O)O)NC(=O)c2nc(OCCN(CC)CC)cc(-c3ccccc3)n2)CC1 [(S)-4-(4-(2-(diethylamino)ethoxy)-6-phenylpyrimidine-2-carboxamido)-5-oxo-5-(4-(pentyloxycarbonyl)piperazin-1-yl)pentanoic acid] |
| > 10 µM | CCCCCOC(=O)N1CCN(C(=O)[C@H](CCC(=O)O)NC(=O)c2nc(NCCCN(C)C)cc(-c3ccccc3)n2)CC1 [(S)-4-(4-(3-(dimethylamino)propylamino)-6-phenylpyrimidine-2-carboxamido)-5-oxo-5-(4-(pentyloxycarbonyl)piperazin-1-yl)pentanoic acid] |
| 3 µM | CCCCCOC(=O)N1CCN(C(=O)[C@H](CCC(=O)O)NC(=O)c2nc(-c3ccccc3)cc(N3CCN(CC(=O)N(C)C)CC3)n2)CC1 [(S)-4-(4-(4-(2-(dimethylamino)-2-oxoethyl)piperazin-1-yl)-6-phenylpyrimidine-2-carboxamido)-5-oxo-5-(4-(pentyloxycarbonyl)piperazin-1-yl)pentanoic acid] |
| 1.4 µM | CCCCCOC(=O)N1CCN(C(=O)[C@H](CCC(=O)O)NC(=O)c2nc(-c3ccccc3)cc(N3CCC(CCN)CC3)n2)CC1 [(S)-4-(4-(4-(2-aminoethyl)piperidin-1-yl)-6-phenylpyrimidine-2-carboxamido)-5-oxo-5-(4-(pentyloxycarbonyl)piperazin-1-yl)pentanoic acid] |
| > 10 µM | CCCCCOC(=O)N1CCN(C(=O)[C@H](CCC(=O)O)NC(=O)c2nc(-c3ccccc3)cc(N3CCC(OCCO)CC3)n2)CC1 [(S)-4-(4-(4-(2-hydroxyethoxy)piperidin-1-yl)-6-phenylpyrimidine-2-carboxamido)-5-oxo-5-(4-(pentyloxycarbonyl)piperazin-1-yl)pentanoic acid] |
| > 10 µM | CCCCCOC(=O)N1CCN(C(=O)[C@H](CCC(=O)O)NC(=O)c2nc(-c3ccccc3)cc(N3CCC(CCOC)CC3)n2)CC1 [(S)-4-(4-(4-(2-methoxyethyl)piperidin-1-yl)-6-phenylpyrimidine-2-carboxamido)-5-oxo-5-(4-(pentyloxycarbonyl)piperazin-1-yl)pentanoic acid] |
| > 10 µM | CCCCCOC(=O)N1CCN(C(=O)[C@H](CCC(=O)O)NC(=O)c2nc(-c3ccccc3)cc(N3CCC(COCCOC)CC3)n2)CC1 [(S)-4-(4-(4-((2-methoxyethoxy)methyl)piperidin-1-yl)-6-phenylpyrimidine-2-carboxamido)-5-oxo-5-(4-(pentyloxycarbonyl)piperazin-1-yl)pentanoic acid] |
| 1.3 µM | CCCCCOC(=O)N1CCN(C(=O)[C@H](CCC(=O)O)NC(=O)c2nc(-c3ccccc3)cc(N3CCC(CNC)CC3)n2)CC1 [(S)-4-(4-(4-((methylamino)methyl)piperidin-1-yl)-6-phenylpyrimidine-2-carboxamido)-5-oxo-5-(4-(pentyloxycarbonyl)piperazin-1-yl)pentanoic acid] |
| 0.77 µM | CCCCCOC(=O)N1CCN(C(=O)[C@H](CCC(=O)O)NC(=O)c2nc(-c3ccccc3)cc(N3CCC(CN)CC3)n2)CC1 [(S)-4-(4-(4-(aminomethyl)piperidin-1-yl)-6-phenylpyrimidine-2-carboxamido)-5-oxo-5-(4-(pentyloxycarbonyl)piperazin-1-yl)pentanoic acid] |
| 6.8 µM | CCCCCOC(=O)N1CCN(C(=O)[C@H](CCC(=O)O)NC(=O)c2nc(-c3ccccc3)cc(N3CCC(COC)CC3)n2)CC1 [(S)-4-(4-(4-(methoxymethyl)piperidin-1-yl)-6-phenylpyrimidine-2-carboxamido)-5-oxo-5-(4-(pentyloxycarbonyl)piperazin-1-yl)pentanoic acid] |
| 6.5 µM | CCCCCOC(=O)N1CCN(C(=O)[C@H](CCC(=O)O)NC(=O)c2nc(-c3ccccc3)cc(N3CCN(C(C)=O)CC3)n2)CC1 [(S)-4-(4-(4-acetylpiperazin-1-yl)-6-phenylpyrimidine-2-carboxamido)-5-oxo-5-(4-(pentyloxycarbonyl)piperazin-1-yl)pentanoic acid] |
| 2.7 µM | CCCCCOC(=O)N1CCN(C(=O)[C@H](CCC(=O)O)NC(=O)c2nc(-c3ccccc3)cc(N3CCC(N)CC3)n2)CC1 [(S)-4-(4-(4-aminopiperidin-1-yl)-6-phenylpyrimidine-2-carboxamido)-5-oxo-5-(4-(pentyloxycarbonyl)piperazin-1-yl)pentanoic acid] |

The next lines start with the compound.

| Structure (SMILES) | IC50 |
| --- | --- |
| CCCCCOC(=O)N1CCN(C(=O)[C@H](CCC(=O)O)NC(=O)c2cc(N3CCC(CN(CC)CC)CC3)nc(-c3ccccc3)n2)CC1 [(4S)-4-[(6-{4-[(diethylamino)methyl]piperidin-1-yl}-2-phenylpyrimidin-4-yl)formamido]-5-oxo-5-{4-[(pentyloxy)carbonyl]piperazin-1-yl}pentanoic acid] | 0.86 µM |
| CCCCOC(=O)N1CCN(C(=O)[C@H](CCC(=O)O)NC(=O)c2cc(OC(CC)C(=O)N(CC)CC)nc(-c3ccccc3)n2)CC1 (stereo partly drawn) [(4S)-5-(4-(butoxycarbonyl)piperazin-1-yl)-4-(6-(1-(diethylamino)-1-oxobutan-2-yloxy)-2-phenylpyrimidine-4-carboxamido)-5-oxopentanoic acid] | 49 µM |
| CCCCOC(=O)N1CCN(C(=O)[C@H](CCC(=O)O)NC(=O)c2cc(OCC3CCCO3)nc(-c3ccccc3)n2)CC1 (stereo partly drawn) [(4S)-5-(4-(butoxycarbonyl)piperazin-1-yl)-5-oxo-4-(2-phenyl-6-((tetrahydrofuran-2-yl)methoxy)pyrimidine-4-carboxamido)pentanoic acid] | 4.4 µM |
| CCCCCOC(=O)N1CCN(C(=O)[C@H](CCC(=O)O)NC(=O)c2cc(NCC3CCNC3)nc(-c3ccccc3)n2)CC1 (stereo partly drawn) [(4S)-5-oxo-5-(4-(pentyloxycarbonyl)piperazin-1-yl)-4-(2-phenyl-6-(pyrrolidin-3-ylmethylamino)pyrimidine-4-carboxamido)pentanoic acid] | 2.6 µM |
| CCCCCOC(=O)N1CCN(C(=O)[C@H](CCC(=O)O)NC(=O)c2nc(NC3CCN(C(C)C)CC3)cc(-c3ccccc3)n2)CC1 [(S)-4-(4-(1-isopropylpiperidin-4-ylamino)-6-phenylpyrimidine-2-carboxamido)-5-oxo-5-(4-(pentyloxycarbonyl)piperazin-1-yl)pentanoic acid] | > 10 µM |
| CCCCCOC(=O)N1CCN(C(=O)[C@H](CCC(=O)O)NC(=O)c2nc(OCCOC)cc(-c3ccccc3)n2)CC1 [(S)-4-(4-(2-methoxyethoxy)-6-phenylpyrimidine-2-carboxamido)-5-oxo-5-(4-(pentyloxycarbonyl)piperazin-1-yl)pentanoic acid] | > 10 µM |
| CCCCCOC(=O)N1CCN(C(=O)[C@H](CCC(=O)O)NC(=O)c2nc(NCCOC)cc(-c3ccccc3)n2)CC1 [(S)-4-(4-(2-methoxyethylamino)-6-phenylpyrimidine-2-carboxamido)-5-oxo-5-(4-(pentyloxycarbonyl)piperazin-1-yl)pentanoic acid] | > 10 µM |
| CCCCCOC(=O)N1CCN(C(=O)[C@H](CCC(=O)O)NC(=O)c2nc(OCCCN3CCOCC3)cc(-c3ccccc3)n2)CC1 [(S)-4-(4-(3-morpholinopropoxy)-6-phenylpyrimidine-2-carboxamido)-5-oxo-5-(4-(pentyloxycarbonyl)piperazin-1-yl)pentanoic acid] | 7 µM |
| CCCCCOC(=O)N1CCN(C(=O)[C@H](CCC(=O)O)NC(=O)c2nc(-c3ccccc3)cc(N3CCC(OCCOC)CC3)n2)CC1 [(S)-4-(4-(4-(2-methoxyethoxy)piperidin-1-yl)-6-phenylpyrimidine-2-carboxamido)-5-oxo-5-(4-(pentyloxycarbonyl)piperazin-1-yl)pentanoic acid] | 5.3 µM |
| CCCCCOC(=O)N1CCN(C(=O)[C@H](CCC(=O)O)NC(=O)c2nc(-c3ccccc3)cc(N3CCN(CCOC)CC3)n2)CC1 [(S)-4-(4-(4-(2-methoxyethyl)piperazin-1-yl)-6-phenylpyrimidine-2-carboxamido)-5-oxo-5-(4-(pentyloxycarbonyl)piperazin-1-yl)pentanoic acid] | 5.1 µM |
| CCCCCOC(=O)N1CCN(C(=O)[C@H](CCC(=O)O)NC(=O)c2nc(-c3ccccc3)cc(N3CCC(CNCC)CC3)n2)CC1 [(S)-4-(4-(4-((ethylamino)methyl)piperidin-1-yl)-6-phenylpyrimidine-2-carboxamido)-5-oxo-5-(4-(pentyloxycarbonyl)piperazin-1-yl)pentanoic acid] | 1.2 µM |
| CCCCCOC(=O)N1CCN(C(=O)[C@H](CCC(=O)O)NC(=O)c2nc(-c3ccccc3)cc(N3CCC(C(=O)N(CC)CC)CC3)n2)CC1 [(S)-4-(4-(4-(diethylcarbamoyl)piperidin-1-yl)-6-phenylpyrimidine-2-carboxamido)-5-oxo-5-(4-(pentyloxycarbonyl)piperazin-1-yl)pentanoic acid] | 1.3 µM |
| CCCCCOC(=O)N1CCN(C(=O)[C@H](CCC(=O)O)NC(=O)c2nc(-c3ccccc3)cc(N3CCN(C(=O)N(C)C)CC3)n2)CC1 [(S)-4-(4-(4-(dimethylcarbamoyl)piperazin-1-yl)-6-phenylpyrimidine-2-carboxamido)-5-oxo-5-(4-(pentyloxycarbonyl)piperazin-1-yl)pentanoic acid] | > 10 µM |
| CCCCCOC(=O)N1CCN(C(=O)[C@H](CCC(=O)O)NC(=O)c2nc(-c3ccccc3)cc(N3CCN(C(N)=O)CC3)n2)CC1 [(S)-4-(4-(4-carbamoylpiperazin-1-yl)-6-phenylpyrimidine-2-carboxamido)-5-oxo-5-(4-(pentyloxycarbonyl)piperazin-1-yl)pentanoic acid] | 3.6 µM |
| CCCCCOC(=O)N1CCN(C(=O)[C@H](CCC(=O)O)NC(=O)c2nc(-c3ccccc3)cc(N3CCC(C(N)=O)CC3)n2)CC1 [(S)-4-(4-(4-carbamoylpiperidin-1-yl)-6-phenylpyrimidine-2-carboxamido)-5-oxo-5-(4-(pentyloxycarbonyl)piperazin-1-yl)pentanoic acid] | 2.3 µM |
| CCCCCOC(=O)N1CCN(C(=O)[C@H](CCC(=O)O)NC(=O)c2nc(-c3ccccc3)cc(N3CCC(OC)CC3)n2)CC1 [(S)-4-(4-(4-methoxypiperidin-1-yl)-6-phenylpyrimidine-2-carboxamido)-5-oxo-5-(4-(pentyloxycarbonyl)piperazin-1-yl)pentanoic acid] | > 10 µM |
| CCCCCOC(=O)N1CCN(C(=O)[C@H](CCC(=O)O)NC(=O)c2nc(-c3ccccc3)cc(N3CCN(C)CC3)n2)CC1 [(S)-4-(4-(4-methylpiperazin-1-yl)-6-phenylpyrimidine-2-carboxamido)-5-oxo-5-(4-(pentyloxycarbonyl)piperazin-1-yl)pentanoic acid] | 8.1 µM |
